This passage reports drug sensitivity score results from the supplement of paper PMC7224384.

The subject of assay [1] is MDA-MB-453. The assay is described as follows: drug sensitivity score (DSS), single agent (DSS (weighted AUC score)); higher = more sensitive (stronger viability decrease); extreme values may be limits of the assay. The following applies: BLU9931 0 nM; 72 h. In a few lines:
(§1)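 Compounds from the FIMM Oncology set were predispensed in singlicate at five 10-fold dilutions (10,000-fold range) on 384-well plates. Each well then received 2000 MDA-MB-453 cells in medium with or without an FGFR4 inhibitor (100 nM final) and was kept at 37 °C, 5% CO2. Cellular ATP was read with CellTiterGlo 2.0 after 72 h and normalised per plate to percent viability from control wells. The drug sensitivity score is a weighted area under a four-parameter logistic fit.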

Assay [2] has as its system MDA-MB-453. The assay is described as follows: drug sensitivity score (DSS), in combination with BLU9931 (DSS (weighted AUC score)); higher = more sensitive (stronger viability decrease); extreme values may be limits of the assay. The following applies: BLU9931 100 nM; 72 h. The method in brief: as §1

With `CO[C@@H](C)Cn1c(=O)n(C)c2cnc3ccc(-c4cncc(C(C)(C)O)c4)cc3c21`, the drug sensitivity score in the assay on MDA-MB-453 [1] and with MDA-MB-453 [2] was 15.3 in each case.

For `CO[C@@H](C(=O)N1Cc2[nH]nc(NC(=O)c3ccc(N4CCN(C)CC4)cc3)c2C1)c1ccccc1` [Danusertib], the drug sensitivity score with MDA-MB-453 [1] amounted to 0.3; with MDA-MB-453 [2], 0.

Take `O=C(CCCCCCNC(=O)c1cnc(N(c2ccccc2)c2ccccc2)nc1)NO` [Rocilinostat]: the drug sensitivity score in the assay on MDA-MB-453 [1] worked out at 9.2; with MDA-MB-453 [2] it was 9.8.

In the case of `O=C(Nc1cc(Oc2cc(F)c(NC(=O)C3(C(=O)Nc4ccc(F)cc4)CC3)cc2F)ccn1)C1CC1` [Altiratinib], the drug sensitivity score with MDA-MB-453 [1] was 7.1; with MDA-MB-453 [2] it was 3.5.

Turning to `N#Cc1ccc2[nH]c(O)c(-c3ccc(CN4CCOCC4)cn3)c2c1` [AZD-1080], the drug sensitivity score in the assay with MDA-MB-453 [1] and in the assay on MDA-MB-453 [2] was 0 in each case.

With `Cc1cc(Nc2cc(N3CCN(C)CC3)nc(/C=C/c3ccccc3)n2)n[nH]1` [ENMD-2076], the drug sensitivity score with MDA-MB-453 [1] worked out at 7.1; with MDA-MB-453 [2] it was 7.8.

As for `CC(O)(CS(=O)(=O)c1ccc(F)cc1)C(=O)Nc1ccc(C#N)c(C(F)(F)F)c1` (stereo not drawn) [Bicalutamide], the drug sensitivity score with MDA-MB-453 [1] and in the assay on MDA-MB-453 [2] was 2.3 throughout.

In the case of `CCN1C(=O)CNc2ncc(-c3ccc(-c4nc[nH]n4)nc3C)nc21` [CC-115], the figures for the drug sensitivity score in the assay on MDA-MB-453 [1] and with MDA-MB-453 [2] were 12.2 and 12.5, respectively.

In the case of `COc1ccc(S(=O)(=O)Nc2cccnc2Nc2ccc(O)cc2)cc1` [ABT-751], the drug sensitivity score with MDA-MB-453 [1] stood at 7.4; with MDA-MB-453 [2], 7.9.

Consider `O=c1[nH]c(C2CCCN2)nc2c1oc1ccc(Cl)cc12` (stereo not drawn), for which the results for the drug sensitivity score with MDA-MB-453 [1] and with MDA-MB-453 [2] were 0 and 0.5, respectively.

For `O=C(CCNC(=O)c1ccc(OC(F)(F)F)cc1)N[C@@H]1CCCc2ccccc21` [ML390], the drug sensitivity score is 5.2 in the assay with MDA-MB-453 [1] and 3 with MDA-MB-453 [2].

Turning to `CC(C)n1cnc2c(NCCc3ccc(O)cc3)nc(-c3csc4ccccc34)nc21` [StemRegenin 1], the drug sensitivity score amounted to 0.3 in the assay on MDA-MB-453 [1] and 0.4 in the assay with MDA-MB-453 [2].

Regarding `CC[C@H](CC#N)OC(=O)N[C@@H](C)c1cccc(NC(=O)Nc2ccc(-c3cnco3)c(OC)c2)c1` [AVN944], the drug sensitivity score in the assay on MDA-MB-453 [1] was 7.1; with MDA-MB-453 [2], 3.2.

As for `CN1CCN(CCOc2cc(OC3CCOCC3)c3c(Nc4c(Cl)ccc5c4OCO5)ncnc3c2)CC1` [Saracatinib], the drug sensitivity score amounted to 1.5 with MDA-MB-453 [1] and 3.6 in the assay on MDA-MB-453 [2].

With `CCCCCCCCCCCCCCCCOP(=O)([O-])OCC[N+](C)(C)C` [Miltefosine], the drug sensitivity score was determined as 2.7 with MDA-MB-453 [1] and 3.9 in the assay on MDA-MB-453 [2].

As to `COCC[n+]1c2c(n(Cc3cnccn3)c1C)C(=O)c1ccccc1C2=O` [Sepantronium bromide], the drug sensitivity score came out at 32.9 in the assay with MDA-MB-453 [1] and 33.2 in the assay on MDA-MB-453 [2].

As to `O=C(NOCCO)c1ccc2cncn2c1Nc1ccc(I)cc1F` [GDC-0623], the drug sensitivity score with MDA-MB-453 [1] stood at 0.4; in the assay with MDA-MB-453 [2], 0.5.

For the compound `Cc1nc(Nc2n[nH]c3c2CN(C(=O)N[C@H](CN(C)C)c2ccccc2)C3(C)C)c2sccc2n1`, the drug sensitivity score with MDA-MB-453 [1] amounted to 11.4; with MDA-MB-453 [2] it was 8.7.

Take `CC#CC(=O)N1CCC[C@H]1c1nc(-c2ccc(C(=O)Nc3ccccn3)cc2)c2c(N)nccn12` [Acalabrutinib]: the drug sensitivity score is 4.2 in the assay with MDA-MB-453 [1] and 2.4 in the assay with MDA-MB-453 [2].

Consider `Cc1ccc(=O)n(-c2ccccc2)c1` [Pirfenidone], for which the drug sensitivity score in the assay on MDA-MB-453 [1] and in the assay on MDA-MB-453 [2] was 0 in each case.

Regarding `COc1cc([C@@H]2c3cc4c(cc3[C@@H](O[C@@H]3O[C@@H]5CO[C@@H](c6cccs6)O[C@H]5[C@H](O)[C@H]3O)[C@H]3COC(=O)[C@H]23)OCO4)cc(OC)c1O` [Teniposide], the drug sensitivity score in the assay on MDA-MB-453 [1] and in the assay with MDA-MB-453 [2] was 0 throughout.

For the compound `Cc1cc(-c2nc(-c3ccc(OC(F)(F)F)cc3)no2)nn1Cc1ccnc(N2CCN(C3CC3)CC2)c1` [BAY 87-2243], the drug sensitivity score is 12.2 in the assay on MDA-MB-453 [1] and 10.4 with MDA-MB-453 [2].

Take `CCS(=O)(=O)c1cccc(-c2cc(C(=O)NC3CCN(C)CC3)c(C)c3[nH]c4ncc(C)cc4c23)c1` [TAK-901]: the drug sensitivity score came to 2.7 with MDA-MB-453 [1] and 3 in the assay with MDA-MB-453 [2].

Take `COc1cc2/c(=N/c3ccc(Br)cc3F)nc[nH]c2cc1OCC1CCN(C)CC1` [Vandetanib]: the drug sensitivity score in the assay with MDA-MB-453 [1] and in the assay on MDA-MB-453 [2] was 0 throughout.

For the compound `C#Cc1cccc(Nc2ncnc3cc(OCCOC)c(OCCOC)cc23)c1` [Erlotinib], the drug sensitivity score with MDA-MB-453 [1] amounted to 2.7; in the assay on MDA-MB-453 [2], 4.7.

Turning to `Cc1sc2c(c1C)C(c1ccc(Cl)cc1)=N[C@@H](CC(=O)Nc1ccc(OCCOCCOCCOCCNc3cccc4c3C(=O)N(C3CCC(=O)NC3=O)C4=O)cc1)c1nnc(C)n1-2` (stereo partly drawn) [ARV-825], the drug sensitivity score stood at 10.1 with MDA-MB-453 [1] and 10.7 in the assay on MDA-MB-453 [2].

With `CN(C)C1CCN(C(=O)c2ccc(NC(=O)Nc3ccc(-c4nc(N5CCOCC5)nc(N5CCOCC5)n4)cc3)cc2)CC1` [Gedatolisib], the drug sensitivity score with MDA-MB-453 [1] was 22.9; in the assay with MDA-MB-453 [2], 23.7.

With `O=c1[nH]c(=O)n([C@H]2C[C@H](O)[C@@H](CO)O2)cc1F` [Floxuridine], the results for the drug sensitivity score in the assay on MDA-MB-453 [1] and with MDA-MB-453 [2] were 4.9 and 2, respectively.

`CON(C)C(=O)N1N=C(c2cc(F)ccc2F)S[C@@]1(CCCN)c1ccccc1` [Filanesib]: the drug sensitivity score with MDA-MB-453 [1] was found to be 16.7; in the assay with MDA-MB-453 [2], 15.3.

Take `Cn1c(Nc2ccc(C(F)(F)F)cc2)nc2cc(Oc3ccnc(-c4ncc(C(F)(F)F)[nH]4)c3)ccc21` [NVP-RAF265]: the drug sensitivity score in the assay with MDA-MB-453 [1] was 1.7; in the assay on MDA-MB-453 [2], 1.1.

With `Cn1cnc2c(F)c(Nc3ccc(Br)cc3F)c(C(=O)NOCCO)cc21` [Binimetinib], the drug sensitivity score in the assay with MDA-MB-453 [1] was found to be 0; in the assay on MDA-MB-453 [2] it was 0.2.

For the compound `C[C@@H]1C=C2C(=O)O[C@@H]3CC[C@H](C1)[C@]23O` [Galiellalactone], the drug sensitivity score was found to be 7.4 in the assay on MDA-MB-453 [1] and 7.7 with MDA-MB-453 [2].

With `O=c1ncn2nc(Sc3ccc(F)cc3F)ccc2c1-c1c(Cl)cccc1Cl` [Neflamapimod], the drug sensitivity score in the assay with MDA-MB-453 [1] and with MDA-MB-453 [2] was 0 each time.

Take `COc1cc2c(cc1OCCCN1CCCC1)N=C(N)C21CCC1` [A-366]: the drug sensitivity score in the assay on MDA-MB-453 [1] and in the assay on MDA-MB-453 [2] was 0 each time.

With `CN1CCN(C2CCN(C(=O)Nc3cc(Oc4ccc(NC(=O)C5(C(=O)Nc6ccc(F)cc6)CC5)c(F)c4)ccn3)CC2)CC1` [Golvatinib], the drug sensitivity score came out at 0.3 in the assay on MDA-MB-453 [1] and 0 in the assay with MDA-MB-453 [2].

For `O=C(CCCCCCC(=O)Nc1ccccc1)NO` [Vorinostat], the drug sensitivity score worked out at 16.4 in the assay with MDA-MB-453 [1] and 15.6 in the assay on MDA-MB-453 [2].

For `Cn1nccc1Nc1nccc(-c2ccn([C@H](CO)c3ccc(Cl)c(F)c3)c(=O)c2)n1` [Ravoxertinib], the drug sensitivity score was found to be 6.9 in the assay with MDA-MB-453 [1] and 5.6 in the assay with MDA-MB-453 [2].

As to `CNC(=O)[C@@H](NC(=O)[C@H](CC(C)C)[C@H](O)C(=O)NO)C(C)(C)C` [Marimastat], the values for the drug sensitivity score in the assay with MDA-MB-453 [1] and in the assay with MDA-MB-453 [2] were 1.1 and 0.8, respectively.

Regarding `CN(Cc1cnc2nc(N)nc(N)c2n1)c1ccc(C(=O)N[C@@H](CCC(=O)O)C(=O)O)cc1` [Methotrexate], the values for the drug sensitivity score with MDA-MB-453 [1] and in the assay with MDA-MB-453 [2] were 1 and 0, respectively.

With `COc1cc(Nc2ncc(F)c(Nc3ccc4c(n3)NC(=O)C(C)(C)O4)n2)cc(OC)c1OC` [Tamatinib], the drug sensitivity score in the assay with MDA-MB-453 [1] and with MDA-MB-453 [2] was 0 throughout.

On to `O=C(c1ccc(C(=O)N2CCC(N3CCCC3)CC2)c(Nc2ccccc2)c1)N1CCC(N2CCCC2)CC1` [UNC1215], for which the drug sensitivity score with MDA-MB-453 [1] and in the assay on MDA-MB-453 [2] was 0 in each case.

For `COCCNCc1ccc(-c2cc3nccc(Oc4ccc(NC(=S)NC(=O)Cc5ccc(F)cc5)cc4F)c3s2)nc1` [Glesatinib], the drug sensitivity score in the assay on MDA-MB-453 [1] amounted to 0.7; in the assay on MDA-MB-453 [2], 0.5.

With `C[C@H]1Oc2cc(cnc2N)-c2c(nn(C)c2C#N)CN(C)C(=O)c2ccc(F)cc21`, the drug sensitivity score in the assay with MDA-MB-453 [1] came to 0; in the assay with MDA-MB-453 [2], 2.1.

As for `COc1cccc2c1C(=O)c1c(O)c3c(c(O)c1C2=O)C[C@@](O)(C(C)=O)C[C@@H]3O[C@H]1C[C@H](N)[C@H](O)[C@H](C)O1` [Daunorubicin], the values for the drug sensitivity score in the assay with MDA-MB-453 [1] and in the assay with MDA-MB-453 [2] were 7.4 and 5.4, respectively.

`Cc1ccc(C(=O)Nc2cccc(C(F)(F)F)c2)cc1Nc1nc(-c2cccnc2)nc2c1cnn2C` [NVP-BHG712]: the results for the drug sensitivity score in the assay on MDA-MB-453 [1] and with MDA-MB-453 [2] were 1.9 and 1.2, respectively.

Turning to `O=C(O)CC1CC(c2ccccc2)=NO1` (stereo not drawn) [VGX-1027], the drug sensitivity score in the assay on MDA-MB-453 [1] and in the assay with MDA-MB-453 [2] was 0 throughout.

With `CC(C)C[C@H](NC(=O)[C@H](Cc1ccccc1)NC(=O)c1cnccn1)B(O)O` [Bortezomib], the drug sensitivity score was determined as 21.3 with MDA-MB-453 [1] and 20.1 with MDA-MB-453 [2].

In the case of `CC(=O)[C@]1(O)Cc2c(O)c3c(c(O)c2[C@@H](O[C@H]2C[C@H](N)[C@H](O)[C@H](C)O2)C1)C(=O)c1ccccc1C3=O` [Idarubicin], the drug sensitivity score with MDA-MB-453 [1] turned out to be 5.9; with MDA-MB-453 [2], 6.4.

Regarding `c1cn2cc(-c3ccc4cn[nH]c4c3)nc(Nc3ccc(N4CCOCC4)cc3)c2n1` [Entospletinib], the drug sensitivity score with MDA-MB-453 [1] and in the assay with MDA-MB-453 [2] was 0 in each case.
